Reference: US10813930B2, “Substituted imidazopyridazines and benzimidazoles as inhibitors of FGFR3” (Incyte Corporation, priority 2010, dated 2020)

Biological target: FGFR3 enzyme (Millipore) (Homo sapiens (Human), UniProt P22607)
Assay: FGFR3 Enzymatic Assay (peptide phosphorylation, FRET/HTRF)
Type: biochemical
Conditions: 140 μM ATP, 25° C. 1 hr
Experimental: FGFR3 Enzymatic Assay The inhibitor potency of compounds of the invention was measured in an enzyme assay that measures peptide phosphorylation using FRET measurements to detect product formation. Inhibitors were serially diluted in DMSO and a volume of 0.5 μL was transferred to the wells of a 384-well plate. A 10 μL volume of FGFR3 enzyme (Millipore) diluted in assay buffer (50 mM HEPES, 10 mM MgCl2, 1 mM EGTA, 0.01% Tween-20, 5 mM DTT, pH 7.5) was added to the plate and pre-incubated for 5-10 minutes. Appropriate controls (enzyme blank and enzyme with no inhibitor) were included on the plate. […] The plate was incubated at 25° C. for 1 hr. […] The plate was allowed to equilibrate for ˜1 hr before scanning the wells on a PheraStar plate reader.
GraphPad prism3 was used to analyze the data. The IC50 values were derived by fitting the data to the equation for a sigmoidal dose-response with a variable slope. Y=Bottom+(Top-Bottom)/(1+10^(Log IC50−X)*HillSlope)) where X is the logarithm of concentration and Y is the response.

Chain of FGFR3 enzyme (Millipore) (P22607 23-806): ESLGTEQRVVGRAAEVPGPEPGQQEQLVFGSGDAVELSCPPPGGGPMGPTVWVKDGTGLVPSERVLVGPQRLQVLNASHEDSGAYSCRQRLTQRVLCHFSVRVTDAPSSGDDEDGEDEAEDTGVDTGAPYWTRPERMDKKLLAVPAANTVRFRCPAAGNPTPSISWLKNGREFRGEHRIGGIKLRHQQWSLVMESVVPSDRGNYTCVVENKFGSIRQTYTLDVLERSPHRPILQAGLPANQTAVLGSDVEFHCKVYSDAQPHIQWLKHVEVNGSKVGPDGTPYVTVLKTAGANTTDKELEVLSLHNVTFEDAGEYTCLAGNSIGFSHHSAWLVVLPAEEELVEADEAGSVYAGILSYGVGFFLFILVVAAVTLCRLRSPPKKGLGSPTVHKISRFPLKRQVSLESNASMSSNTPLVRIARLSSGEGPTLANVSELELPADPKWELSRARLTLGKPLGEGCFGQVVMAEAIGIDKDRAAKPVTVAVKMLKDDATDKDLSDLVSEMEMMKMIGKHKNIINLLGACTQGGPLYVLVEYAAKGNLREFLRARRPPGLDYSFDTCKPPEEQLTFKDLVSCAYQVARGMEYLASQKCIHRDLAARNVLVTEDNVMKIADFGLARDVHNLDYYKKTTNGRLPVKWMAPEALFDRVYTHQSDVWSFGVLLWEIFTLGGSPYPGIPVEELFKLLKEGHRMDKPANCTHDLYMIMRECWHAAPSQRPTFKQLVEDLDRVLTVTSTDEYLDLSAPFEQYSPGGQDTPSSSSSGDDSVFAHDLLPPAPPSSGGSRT

IC50 [µM]	SMILES
< 0.01	N#CCC1(n2cc(-c3cnn4c(-c5cccc(NC(=O)NCC(F)(F)F)c5)cnc4c3)cn2)CN(C(=O)NCC2CC2)C1 [Example 87, 3-(Cyanomethyl)-N-(cyclopropylmethyl)-3-(4-{3-[3-({[(2,2,2-trifluoroethyl)amino]carbonyl}amino)phenyl]imidazo[1,2-b]pyridazin-7-yl}-1H-pyrazol-1-yl)azetidine-1-carboxamide]
< 0.01	N#CCC1(n2cc(-c3cnn4c(-c5cccc(NC(=O)NCC(F)(F)F)c5)cnc4c3)cn2)CN(C(=O)OCC2CC2)C1 [Example 88, Cyclopropylmethyl 3-(cyanomethyl)-3-(4-{3-[3-({[(2,2,2-trifluoroethyl)amino]carbonyl}amino)phenyl]imidazo[1,2-b]pyridazin-7-yl}-1H-pyrazol-1-yl)azetidine-1-carboxylate]
< 0.01	N#CCC1(n2cc(-c3cnn4c(-c5cccc(NC(=O)NCC(F)(F)F)c5)cnc4c3)cn2)CN(C(=O)N2CCCC2)C1 [Example 86, N-[3-(7-{1-[3-(Cyanomethyl)-1-(pyrrolidin-1-ylcarbonyl)azetidin-3-yl]-1H-pyrazol-4-yl}imidazo[1,2-b]pyridazin-3-yl)phenyl]-N′-(2,2,2-trifluoroethyl)u rea]
< 0.01	N#CCC1(n2cc(-c3cnn4c(-c5cccc(NC(=O)NCC(F)(F)F)c5)cnc4c3)cn2)CN(C(=O)C2CCOC2)C1 (stereo not shown) [Example 82, N-[3-(7-{1-[3-(Cyanomethyl)-1-(tetrahydrofuran-3-ylcarbonyl)azetidin-3-yl]-1H-pyrazol-4-yl}imidazo[1,2-b]pyridazin-3-yl)phenyl]-N′-(2,2,2-trifluoroethyl)urea]
< 0.01	N#CCC1(n2cc(-c3cnn4c(-c5cccc(NC(=O)NCC(F)(F)F)c5)cnc4c3)cn2)CN(C(=O)N2CCOCC2)C1 [Example 85, N-[3-(7-{1-[3-(Cyanomethyl)-1-(morpholin-4-ylcarbonyl)azetidin-3-yl]-1H-pyrazol-4-yl}imidazo[1,2-b]pyridazin-3-yl)phenyl]-N′-(2,2,2-trifluoroethyl)urea]
< 0.01	CC(C(=O)N1CCC(F)(F)C1)n1cc(-c2cnn3c(-c4cccc(NC(=O)NCC(F)(F)F)c4)cnc3c2)cn1 (stereo not shown) [Example 65, N-[3-(7-{1-[2-(3,3-Difluoropyrrolidin-1-yl)-1-methyl-2-oxoethyl]-1H-pyrazol-4-yl}imidazo[1,2-b]pyridazin-3-yl)phenyl]-N′-(2,2,2-trifluoroethyl)urea]
< 0.01	CC(O)CNC(=O)C(C)n1cc(-c2cnn3c(-c4cccc(NC(=O)NCC(F)(F)F)c4)cnc3c2)cn1 (stereo not shown) [Example 63, N-(2-Hydroxypropyl)-2-(4-{3-[3-({[(2,2,2-trifluoroethyl)amino]carbonyl}amino)phenyl]imidazo[1,2-b]pyridazin-7-yl}-1H-pyrazol-1-yl)propanamide]
< 0.01	N#CCC(=O)N1CC(CC#N)(n2cc(-c3cnn4c(-c5cccc(NC(=O)NCC(F)(F)F)c5)cnc4c3)cn2)C1 [Example 77, N-[3-(7-{1-[1-(Cyanoacetyl)-3-(cyanomethyl)azetidin-3-yl]-1H-pyrazol-4-yl}imidazo[1,2-b]pyridazin-3-yl)phenyl]-N′-(2,2,2-trifluoroethyl)urea]
< 0.01	N#CCC1(n2cc(-c3cnn4c(-c5cccc(NC(=O)NCC(F)(F)F)c5)cnc4c3)cn2)CN(C(=O)C2(C#N)CC2)C1 [Example 80, N-[3-(7-{1-[1-[(1-Cyanocyclopropyl)carbonyl]-3-(cyanomethyl)azetidin-3-yl]-1H-pyrazol-4-yl}imidazo[1,2-b]pyridazin-3-yl)phenyl]-N′-(2,2,2-trifluoroethyl)urea]
< 0.01	N#CCC1(n2cc(-c3cnn4c(-c5cccc(NC(=O)NCC(F)(F)F)c5)cnc4c3)cn2)CN(C(=O)CC2CC2)C1 [Example 78, N-[3-(7-{1-[3-(Cyanomethyl)-1-(cyclopropylacetyl)azetidin-3-yl]-1H-pyrazol-4-yl}imidazo[1,2-b]pyridazin-3-yl)phenyl]-N′-(2,2,2-trifluoroethyl)urea]
< 0.01	CC(C(=O)N1CC(O)C1)n1cc(-c2cnn3c(-c4cccc(NC(=O)NCC(F)(F)F)c4)cnc3c2)cn1 (stereo not shown) [Example 64, N-[3-(7-{1-[2-(3-Hydroxyazetidin-1-yl)-1-methyl-2-oxoethyl]-1H-pyrazol-4-yl}imidazo[1,2-b]pyridazin-3-yl)phenyl]-N′-(2,2,2-trifluoroethyl)urea]
< 0.01	CC1(C(=O)N2CC(CC#N)(n3cc(-c4cnn5c(-c6cccc(NC(=O)NCC(F)(F)F)c6)cnc5c4)cn3)C2)CC1 [Example 79, N-{3-[7-(1-{3-(Cyanomethyl)-1-[(1-methylcyclopropyl)carbonyl]azetidin-3-yl}-1H-pyrazol-4-yl)imidazo[1,2-b]pyridazin-3-yl]phenyl}-N′-(2,2,2-trifluoroethyl)urea]
< 0.01	N#CCC1(n2cc(-c3cnn4c(-c5cccc(NC(=O)NCC(F)(F)F)c5)cnc4c3)cn2)CN(C(=O)CC2CCCO2)C1 (stereo not shown) [Example 81, N-[3-(7-{1-[3-(Cyanomethyl)-1-(tetrahydrofuran-2-ylacetyl)azetidin-3-yl]-1H-pyrazol-4-yl}imidazo[1,2-b]pyridazin-3-yl)phenyl]-N′-(2,2,2-trifluoroethyl)urea]
